From PubChem BioAssay AID1033 (Sanford-Burnham Center for Chemical Genomics, 2008)
“And” between values parts separate entries of the source, which are not always exact repeats. Equal entries are not always repeated. The source made the active and inactive calls. The rule behind the calls is not given here.

Molecular target: Chaperone protein DnaK (Escherichia coli (strain K12)) (UniProt P0A6Y8)
Assay: E. coli DnaK SBD ligand binding – biophysical, NMR, chaperone (AID 1033)
Conditions: Purified DnaK SBD

Chaperone protein DnaK (Escherichia coli (strain K12)), sequence (P0A6Y8 whole entry, looked up): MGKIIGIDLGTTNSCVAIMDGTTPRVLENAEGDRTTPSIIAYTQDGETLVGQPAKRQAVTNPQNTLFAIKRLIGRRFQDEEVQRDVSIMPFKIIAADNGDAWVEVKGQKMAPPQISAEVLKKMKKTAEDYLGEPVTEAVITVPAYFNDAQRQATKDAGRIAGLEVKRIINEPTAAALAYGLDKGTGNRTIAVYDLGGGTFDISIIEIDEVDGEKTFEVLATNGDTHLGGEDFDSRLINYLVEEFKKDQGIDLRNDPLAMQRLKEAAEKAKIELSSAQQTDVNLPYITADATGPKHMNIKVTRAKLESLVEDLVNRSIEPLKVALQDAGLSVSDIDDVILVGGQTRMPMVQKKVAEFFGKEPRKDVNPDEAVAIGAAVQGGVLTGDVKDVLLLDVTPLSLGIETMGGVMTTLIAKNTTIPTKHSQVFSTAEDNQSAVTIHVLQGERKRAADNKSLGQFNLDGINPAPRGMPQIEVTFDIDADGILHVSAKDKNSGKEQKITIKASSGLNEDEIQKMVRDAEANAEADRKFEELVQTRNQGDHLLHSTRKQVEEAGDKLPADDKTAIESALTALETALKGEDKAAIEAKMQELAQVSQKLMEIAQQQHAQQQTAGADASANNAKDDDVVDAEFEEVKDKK

| Structure (SMILES) | Kd |
| --- | --- |
| O=C1c2ccccc2C(=O)c2c(O)c(O)cc(O)c21 | > 4 mM (inactive) |
| O=C(O)C1CC(=O)N(Cc2ccco2)C1 (centres undefined) | > 4 mM (inactive) |
| Cn1c(NCC(=O)O)nc2c1c(=O)[nH]c(=O)n2C | > 4 mM (inactive) |
| CSc1nc(-c2ccccc2)ccc1C(N)=O | > 4 mM (inactive) |
| C(=C\c1ccccc1)/C=N/n1cnnc1 | > 4 mM (inactive) |
| OCc1ccc(-n2ccnc2)cc1 | > 4 mM (inactive) |
| Nc1cncc(C(=O)O)c1 | > 4 mM (inactive) |
| CC1(C)C=Cc2cc3ccc(=O)oc3cc2O1 | > 4 mM (inactive) |
| Cc1nnc(SCC(=O)Nc2ccccc2)[nH]c1=O | > 4 mM (inactive) |
| O=C(NN=C1CCCC1)c1ccncc1 | > 4 mM (inactive) |
| Cn1c(=O)c2[nH]cnc2n(-c2ccccc2)c1=O | > 4 mM (inactive) |
| O=C1C2C3C=CC(C3)C2C(=O)N1c1nccs1 (centres undefined) | > 4 mM (inactive) |
| CC(=O)Nc1ccc(-c2nc(C)c(C(C)=O)n2O)cc1 | > 4 mM (inactive) |
| CC(=O)c1cccc(NC(=O)Nc2c(C)nn(C)c2C)c1 | > 4 mM (inactive) |
| CCOc1cccc(C(=O)c2ccc(O)c(O)c2O)c1 | > 4 mM (inactive) |
| Nc1cccc(F)c1-c1ncon1 | > 4 mM (inactive) |
| c1coc(-c2nc(-c3ccncc3)no2)c1 | > 4 mM (inactive) |
| c1ccc(C2NCCc3[nH]cnc32)cc1 (centres undefined) | > 4 mM (inactive) |
| COc1c2ccoc2c(OC)c2oc(=O)ccc12 | > 4 mM (inactive) |
| NC(=O)c1c(Cl)nsc1-c1ccccc1Cl | > 4 mM (inactive) |
| CCOC(=O)C1CCN(c2ncnc3nc[nH]c23)CC1 | > 4 mM (inactive) |
| O=C(Nc1cccnc1)c1cnn2cccnc12 | > 4 mM (inactive) |
| Cc1c(C(=O)Nn2cnnc2)oc2ccccc12 | > 4 mM (inactive) |
| Nc1nc2ccc(N3CCOCC3)cc2s1 | > 4 mM (inactive) |

| Structure (SMILES) | Kd |
| --- | --- |
| O=C(Nc1ccc2c(c1)OCCO2)c1ccncc1 | > 4 mM (inactive) |
| CN(c1ccccc1C(=O)N1CCCC1)S(C)(=O)=O | > 4 mM (inactive) |
| CCCC(=O)N1CCSCC1 | > 4 mM (inactive) |
| C=C(C)C1CC=C(CO)CC1 (centres undefined) | > 4 mM (inactive) |
| CC(=O)C1=C(O)C(=O)NC1c1ccccc1 (centres undefined) | > 4 mM (inactive) |
| CC1(C(=O)O)CC2C=CC1C2 (centres undefined) | > 4 mM (inactive) |
| NC(=S)N1CCC(c2ccccc2)=N1 | > 4 mM (inactive) |
| CCN1CCC(=NO)CC1 | > 4 mM (inactive) |
| Cc1ccc(OCC(=O)n2cnnc2N)c(C)c1 | > 4 mM (inactive) |
| CCC(C)C(=O)O[C@@H]1C[C@@]2(C)[C@H](c3ccoc3)OC(=O)CC23OC2(C)O[C@]14[C@]1(C)[C@@H](CC(=O)OC)C5(C)CC1(O)[C@](O)(C5OC(=O)C1(C)OC1C)[C@@H](OC(C)=O)[C@]34O2 (some centres undefined) | > 4 mM (inactive) |
| COC1C(O)C(O[C@H]2CC[C@]3(C=O)C4C(CC[C@]3(O)C2)[C@@]2(O)CC[C@H](C3=CC(=O)OC3)[C@@]2(C)C[C@H]4OC(C)=O)OC(C)C1OC(C)=O (some centres undefined) | > 4 mM (inactive) |
| CC(=O)NC(NC(C)=O)c1ccccc1 | > 4 mM (inactive) |
| Cc1occc1C(=O)Nc1ccc(C(N)=O)cc1 | > 4 mM (inactive) |
| O=C1NC(=O)/C(=C/c2ccc(O)cc2)N1 | > 4 mM (inactive) |
| CSc1nc(C)c(Oc2ccccc2)c(=O)n1C | > 4 mM (inactive) |
| C[C@@H]1[C@H]2[C@H](O[C@@H]3O[C@H](CO)[C@@H](O)[C@H](O)[C@H]3O)OC=C(C(=O)O)[C@H]2C[C@@H]1O | > 4 mM (inactive) |
| OC1CCN(Cc2ccc[nH]2)CC1 | > 4 mM (inactive) |
| O=C1CSC(=O)N1CNc1ccccc1 | > 4 mM (inactive) |
| CC(C)(C)P(=O)(O)c1ccccc1 | > 4 mM (inactive) |
| COc1ccc(C(N)=O)cc1N | > 4 mM (inactive) |
| CC(=O)Nc1ccncc1NC(C)=O | > 4 mM (inactive) |
| C[C@H](CCC(=O)O)[C@H]1CCC2C3C(CC[C@@]21C)[C@@]1(C)CC[C@@H](O)C[C@H]1C[C@@H]3O (some centres undefined) | > 4 mM (inactive) |
| Cc1n[nH]c(C)c1CN | > 4 mM (inactive) |
| OC[C@H]1O[C@@H](O[C@H]2[C@H](O)[C@@H](O)[C@@H](O)O[C@@H]2CO)[C@H](O)[C@@H](O)[C@@H]1O | > 4 mM (inactive) |

| Structure (SMILES) | Kd |
| --- | --- |
| O=C(Nc1ccon1)c1csc2ccccc12 | > 4 mM (inactive) |
| CC(=O)c1cccc(NS(=O)(=O)N(C)C)c1 | > 4 mM (inactive) |
| Cc1[nH]n(-c2ccccc2)c(=O)c1[N+](=O)[O-] | > 4 mM (inactive) |
| Cc1nn2c(=O)c(NC(=O)c3ccccc3)cnc2s1 | > 4 mM (inactive) |
| CCOC(=O)c1c(C)n([O-])c2ccccc2[n+]1=O | > 4 mM (inactive) |
| O=C(O)c1ccc2c(c1)CCO2 | > 4 mM (inactive) |
| O=c1cc(-c2ccc(O)cc2)oc2cc(O[C@@H]3O[C@H](CO)[C@@H](O)[C@H](O)[C@H]3O[C@@H]3OC[C@](O)(CO)[C@H]3O)cc(O)c12 | > 4 mM (inactive) |
| O=C(O)C1CSC(c2cc3ccccc3nc2Cl)N1 (centres undefined) | > 4 mM (inactive) |
| O=C(Nc1nnc(C(F)(F)F)s1)c1cccnc1 | > 4 mM (inactive) |
| CC1=CC(=O)CC(C)(C)C1(O)/C=C/C(C)=C\C(=O)O (centres undefined) | > 4 mM (inactive) |
| NCCCCNCCCN | > 4 mM (inactive) |
| Nc1ncnc2c1ncn2[C@@H]1O[C@H](CO)[C@@H](O)[C@H]1O | > 4 mM (inactive) |
| Cc1nn(C)c(C)c1C(=O)O | > 4 mM (inactive) |
| NS(=O)(=O)c1ccc(N2CCCC2=O)cc1 | > 4 mM (inactive) |
| CC(=O)NC1=C(N(C)C)C(=O)c2ccccc2C1=O | > 4 mM (inactive) |
| CSc1nc(-c2ccco2)nn1S(C)(=O)=O | > 4 mM (inactive) |
| Cn1nccc1N | > 4 mM (inactive) |
| C=C1CCC2C(CC2(C)C)C(=C)CC/C1=N/O (centres undefined) | > 4 mM (inactive) |
| CC(C)(C)c1cc(CN)c(C(=O)O)o1 | > 4 mM (inactive) |
| O=C(NCc1ccccc1F)c1cccs1 | 0.158 mM and < 0.2 mM |
| C(=N\n1cnnc1)/c1cccs1 | > 4 mM (inactive) |
| Cn1cnc2nc3n(c2c1=O)CCC3 | > 4 mM (inactive) |
| Cc1c(C)[n+]([O-])c(-c2ccc([N+](=O)[O-])cc2)n1O | > 4 mM (inactive) |
| Nn1c(CN2CCCCC2)nc2ccccc2c1=O | > 4 mM (inactive) |

| Structure (SMILES) | Kd |
| --- | --- |
| Cc1nc(SCC#N)c2c(C)c(C)sc2n1 | > 4 mM (inactive) |
| NCc1ccccc1N1CCOCC1 | > 4 mM (inactive) |
| O=S1(=O)C=CC(N2CCCCC2)C1 (centres undefined) | > 4 mM (inactive) |
| CCc1ccccc1NC(=O)c1ccoc1C | > 4 mM (inactive) |
| Oc1cc(O)cc(/C=C/c2ccccc2)c1 | > 4 mM (inactive) |
| CCc1cccc(C)c1NC(=O)c1cc(C)oc1C | > 4 mM (inactive) |
| Cn1c2c(c(=O)n(C)c1=O)CN(Cc1ccco1)CN2 | > 4 mM (inactive) |
| CC1CC2(NC(=O)NC2=O)C(C)CN1C (centres undefined) | > 4 mM (inactive) |
| Nc1ccccc1C(=O)N1CCNC(=O)C1 | > 4 mM (inactive) |
| Cc1ccc(C)n1NC(=O)c1ccco1 | > 4 mM (inactive) |
| O=C1C2C3C=CC(C3)C2C(=O)N1CCCO (centres undefined) | > 4 mM (inactive) |
| CC(=O)c1sc2nc(N)nn2c1C | > 4 mM (inactive) |
| Cn1ncc(C(=O)NC2CCCCC2)c1Cl | > 4 mM (inactive) |
| S=C(NCc1ccco1)NN1CCOCC1 | > 4 mM (inactive) |
| Cc1nn2c(=O)nc3sc4c(c3c2[nH]c1=O)CCCC4 | > 4 mM (inactive) |
| COc1cccc(OC)c1C(=O)N1CCOCC1 | > 4 mM (inactive) |
| O=C(O)CCCCC1SCC2NC(=O)NC21 (centres undefined) | > 4 mM (inactive) |
| CC(=O)Nc1nnc(-c2ccccc2)o1 | > 4 mM (inactive) |
| Nc1nsc(-c2ccccc2)n1 | > 4 mM (inactive) |
| S=C(c1ccc2c(c1)OCO2)N1CCCC1 | > 4 mM (inactive) |
| CC(=O)O[C@@H]1CC2C(C)(C)C(=O)C=C[C@]2(C)C2CC[C@]3(C)C(=CC(=O)O[C@H]3c3ccoc3)[C@@]21C (some centres undefined) | > 4 mM (inactive) |
| O=C(O)CSc1nc2ccccc2c(=O)[nH]1 | > 4 mM (inactive) |
| COc1ccc(N2CC(=O)NC2=O)cc1 | > 4 mM (inactive) |
| Cc1nnc(NC(=O)C(C)Sc2nncn2C)s1 (centres undefined) | > 4 mM (inactive) |

| Structure (SMILES) | Kd |
| --- | --- |
| Cc1ncc(CC(=O)O)s1 | > 4 mM (inactive) |
| Cc1cccc(NC(=O)c2ccc(=O)[nH]n2)c1 | > 4 mM (inactive) |
| COc1ccc(C(=O)/C=C2\NC(=S)NC2=O)cc1 | > 4 mM (inactive) |
| CNCc1ccccc1 | > 4 mM (inactive) |
| Nc1ncnc2c1ncn2C1O[C@H](COP(=O)(O)O)[C@@H](O)[C@H]1O (some centres undefined) | > 4 mM (inactive) |
| OCc1csc(-c2cccs2)n1 | > 4 mM (inactive) |
| NC(=O)C12CC3CC(C1)C(=O)C(C3)C2 | > 4 mM (inactive) |
| CC(=O)Nc1cccc(NC(=O)c2cccnc2)c1 | > 4 mM (inactive) |
| CC(=O)N1CCN(c2ccc(O)cc2)CC1 | > 4 mM (inactive) |
| CN(C)CC(O)C1CCOC(C)(C)C1 (centres undefined) | > 4 mM (inactive) |
| CC(=O)N1CCC(NC2CCCCCC2)CC1 | > 4 mM (inactive) |
| Cc1c(N=CN(C)C)c(=O)n(-c2ccccc2)n1C | > 4 mM (inactive) |
| Cc1sc2nc(SC3CCOC3=O)[nH]c(=O)c2c1C (centres undefined) | > 4 mM (inactive) |
| CC12CCC(O)CC1CCC1C2[C@H](O)CC2(C)C(C3=CC(=O)OC3)CCC12O (some centres undefined) | > 4 mM (inactive) |
| CCOC(=O)Cn1cnc2sc3c(c2c1=O)CCC3 | > 4 mM (inactive) |
| COc1ccc2c(C)cc(=O)oc2c1 | > 4 mM (inactive) |
| Cc1cc(=O)[nH]c(N2CCN(Cc3ccccc3)CC2)n1 | > 4 mM (inactive) |
| COc1cc(C(=S)N2CCC(C(N)=O)CC2)ccc1O | > 4 mM (inactive) |
| COC(=O)CC1NC2CCCCC2NC1=O (centres undefined) | > 4 mM (inactive) |
| CN1CCCC1C(=O)O (centres undefined) | > 4 mM (inactive) |
| CC(C)CCCC(C)[C@H]1CCC2C3CC[C@@H]4C[C@H](O)CC[C@]4(C)C3CC[C@@]21C (some centres undefined) | > 4 mM (inactive) |
| O=[N+]([O-])c1c[n+]([O-])n(-c2ccccc2)n1 | > 4 mM (inactive) |
| COc1ccc(C[C@H]2NC[C@H](O)[C@H]2OC(C)=O)cc1 | > 4 mM (inactive) |
